Laboratory results: patent US9156801B2, “2-substituted oleanolic acid derivative, method preparing for same, and application thereof” (HANGZHOU BENSHENG PHARMACEUTICAL CO., LTD., priority 2011, dated 2015)
In brackets after ≈: the same amount, converted by molar mass.

What was measured:
RPMI8226 cell line = assay: multiple myeloma cell growth inhibition, MTT; type: cell-based; conditions: Homo sapiens, RPMI-8226; for inhibition at 16 µg/mL: RPMI8226, 16 μg/mL compound, 72 h, read-out: IR (cell proliferation inhibition rate); for IC50: RPMI8226, 72 h
How it was run: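 Viability was measured by MTT after a 72 h compound exposure (37° C, 5% CO2) of RPMI8226 myeloma cells seeded at 6000 per well in 1640 medium with 10% fetal bovine serum. Growth inhibition was expressed relative to untreated cells, taken as 0%.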

Kasumi-1 cell line = assay: leukemia cell growth inhibition, MTT; type: cell-based; conditions: Homo sapiens; for inhibition at 16 µg/mL: Kasumi-1, 16 μg/mL compound, 72 h, read-out: IR (cell proliferation inhibition rate); for IC50: Kasumi-1, 72 h
How it was run: (§1)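 Proliferation inhibition was read by MTT after 72 h of compound exposure (37 °C, 5% CO2), untreated wells defining 0%. Each well held 6000 cells in 1640 medium plus 10% fetal bovine serum, with test compounds at varied concentrations.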

Jurkat cell line = assay: leukemia cell growth inhibition, MTT; type: cell-based; conditions: Homo sapiens, 72 h; for inhibition at 16 µg/mL: 16 μg/mL compound, read-out: IR (cell proliferation inhibition rate)
How it was run: as §1

NB4 cell line = assay: leukemia cell growth inhibition, MTT; type: cell-based; conditions: Homo sapiens, NB-4; for inhibition at 16 µg/mL: NB4, 16 μg/mL compound, 72 h, read-out: IR (cell proliferation inhibition rate); for IC50: NB4, 72 h
How it was run: as §1

H9 cell line = assay: leukemia cell growth inhibition, MTT; type: cell-based; conditions: Homo sapiens; for IC50: H9, 72 h; for inhibition at 16 µg/mL: H9, 16 μg/mL compound, 72 h, read-out: IR (cell proliferation inhibition rate)
How it was run: as §1

K562/adr cell line = assay: leukemia cell growth inhibition, MTT; type: cell-based; conditions: Homo sapiens, 72 h; for IC50: K562/Adr; for inhibition at 16 µg/mL: K562/adr, 16 μg/mL compound, read-out: IR (cell proliferation inhibition rate)
How it was run: as §1

A549 cell line = assay: solid tumor cell growth inhibition, MTT; type: cell-based; conditions: Homo sapiens; for IC50: A549, 72 h; for inhibition at 16 µg/mL: A549, 16 μg/mL compound, 72 h, read-out: IR (cell proliferation inhibition rate)
How it was run: (§2)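 4000 cells/well, DMEM high glucose + 10% FBS, 37° C/5% CO2; 24 h attach, compound (range of concentrations) 72 h; MTT viability; untreated control = 0% inhibition.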

PC-3 cell line = assay: solid tumor cell growth inhibition, MTT; type: cell-based; conditions: Homo sapiens; for IC50: PC-3, 72 h; for inhibition at 16 µg/mL: PC-3, 16 μg/mL compound, 72 h, read-out: IR (cell proliferation inhibition rate)
How it was run: as §2

CaES-17 cell line = assay: solid tumor cell growth inhibition, MTT; type: cell-based; conditions: Homo sapiens, CaEs17; for inhibition at 16 µg/mL: CaES-17, 16 μg/mL compound, 72 h, read-out: IR (cell proliferation inhibition rate); for IC50: CaES-17, 72 h
How it was run: as §2

PANC-1 cell line = assay: solid tumor cell growth inhibition, MTT; type: cell-based; conditions: Homo sapiens; for IC50: PANC-1, 72 h; for inhibition at 16 µg/mL: PANC-1, 16 μg/mL compound, 72 h, read-out: IR (cell proliferation inhibition rate)
How it was run: as §2

SK-OV-3 cell line = assay: solid tumor cell growth inhibition, MTT; type: cell-based; conditions: Homo sapiens; for IC50: SK-OV-3, 72 h; for inhibition at 16 µg/mL: SK-OV-3, 16 μg/mL compound, 72 h, read-out: IR (cell proliferation inhibition rate)
How it was run: as §2

Hep-2 cell line = assay: solid tumor cell growth inhibition, MTT; type: cell-based; conditions: Homo sapiens; for IC50: HEp-2, 72 h; for inhibition at 16 µg/mL: Hep-2, 16 μg/mL compound, 72 h, read-out: IR (cell proliferation inhibition rate)
How it was run: as §2

RKO cell line = assay: solid tumor cell growth inhibition, MTT; type: cell-based; conditions: Homo sapiens, 72 h; for inhibition at 16 µg/mL: 16 μg/mL compound, read-out: IR (cell proliferation inhibition rate)
How it was run: as §2

MG-63 cell line = assay: solid tumor cell growth inhibition, MTT; type: cell-based; conditions: Homo sapiens; for IC50: MG-63, 72 h; for inhibition at 16 µg/mL: MG-63, 16 μg/mL compound, 72 h, read-out: IR (cell proliferation inhibition rate)
How it was run: as §2

Becap37 cell line = assay: solid tumor cell growth inhibition, MTT; type: cell-based; conditions: Homo sapiens; for inhibition at 16 µg/mL: Becap37, 16 μg/mL compound, 72 h, read-out: IR (cell proliferation inhibition rate); for IC50: Becap37, 72 h
How it was run: as §2

Hela cell line = assay: solid tumor cell growth inhibition, MTT; type: cell-based; conditions: Homo sapiens, 72 h; for IC50: HeLa; for inhibition at 16 µg/mL: Hela, 16 μg/mL compound, read-out: IR (cell proliferation inhibition rate)
How it was run: as §2

MGC 803 cell line = assay: solid tumor cell growth inhibition, MTT; type: cell-based; conditions: Homo sapiens; for inhibition at 16 µg/mL: MGC 803, 16 μg/mL compound, 72 h, read-out: IR (cell proliferation inhibition rate); for IC50: MGC 803, 72 h
How it was run: as §2

CNE cell line = assay: solid tumor cell growth inhibition, MTT; type: cell-based; conditions: Homo sapiens, 72 h; for inhibition at 16 µg/mL: 16 μg/mL compound, read-out: IR (cell proliferation inhibition rate)
How it was run: as §2

U87 MG cell line = assay: solid tumor cell growth inhibition, MTT; type: cell-based; conditions: Homo sapiens, U-87 MG, 72 h; for inhibition at 16 µg/mL: 16 μg/mL compound, read-out: IR (cell proliferation inhibition rate)
How it was run: as §2

Hep G2 cell line = assay: solid tumor cell growth inhibition, MTT; type: cell-based, human; conditions: Homo sapiens; for inhibition at 16 µg/mL: HepG2, 72 h, Hep G2, 16 μg/mL compound, 72 h, read-out: IR (cell proliferation inhibition rate); for IC50: HepG2, Hep G2, 72 h
How it was run: as §2

`COC(=O)[C@]12CCC(C)(C)C[C@H]1C1=CC[C@@H]3[C@@]4(C)CC(C(=O)NCCN5CCCCC5)C(=O)C(C)(C)[C@@H]4CC[C@@]3(C)[C@]1(C)CC2` (some centres unmarked) [BS-OA-004] was tested, and the inhibition at 16 µg/mL (RPMI8226 cell line) was 98.3%, the IC50 (RPMI8226 cell line) was 2.08 µg/mL (≈ 3.34 µM) and the inhibition at 16 µg/mL (Kasumi-1 cell line) was 99.6%. The IC50 (Kasumi-1 cell line) was 6.5 µg/mL (≈ 10.4 µM), the inhibition at 16 µg/mL (Jurkat cell line) was 97.7% and the IC50 (Jurkat cell line) was 6.15 µg/mL (≈ 9.87 µM). The inhibition at 16 µg/mL (NB4 cell line) was 100%, the IC50 (NB4 cell line) was 2.84 µg/mL (≈ 4.56 µM) and the IC50 (H9 cell line) was 5.67 µg/mL (≈ 9.1 µM). For the same molecule, the inhibition at 16 µg/mL (H9 cell line) was 98.2%, the IC50 (K562/adr cell line) was 2.41 µg/mL (≈ 3.87 µM) and the inhibition at 16 µg/mL (K562/adr cell line) was 98.3%. For the same molecule, the IC50 (A549 cell line) was 7.7 µg/mL (≈ 12.4 µM), the inhibition at 16 µg/mL (A549 cell line) was 92% and the IC50 (PC-3 cell line) was 9.91 µg/mL (≈ 15.9 µM). The inhibition at 16 µg/mL (PC-3 cell line) was 89.8%, the inhibition at 16 µg/mL (CaES-17 cell line) was 81.2% and the IC50 (CaES-17 cell line) was 8.88 µg/mL (≈ 14.3 µM). The IC50 (PANC-1 cell line) was 8.77 µg/mL (≈ 14.1 µM), the inhibition at 16 µg/mL (PANC-1 cell line) was 94.1% and the IC50 (SK-OV-3 cell line) was 9.14 µg/mL (≈ 14.7 µM). It also gave an inhibition at 16 µg/mL (SK-OV-3 cell line) of 94.9%, an IC50 (Hep-2 cell line) of 10.1 µg/mL (≈ 16.2 µM) and an inhibition at 16 µg/mL (Hep-2 cell line) of 85.5%. For the same molecule, the inhibition at 16 µg/mL (RKO cell line) was 98.9%, the IC50 (RKO cell line) was 7.4 µg/mL (≈ 11.9 µM) and the IC50 (MG-63 cell line) was 8.37 µg/mL (≈ 13.4 µM). For the same molecule, the inhibition at 16 µg/mL (MG-63 cell line) was 99%, the inhibition at 16 µg/mL (Becap37 cell line) was 43.9% and the IC50 (Becap37 cell line) was > 16 µg/mL. It also gave an IC50 (Hela cell line) of 9.28 µg/mL (≈ 14.9 µM), an inhibition at 16 µg/mL (Hela cell line) of 99.4% and an inhibition at 16 µg/mL (MGC 803 cell line) of 98.1%. For the same molecule, the IC50 (MGC 803 cell line) was 7.32 µg/mL (≈ 11.8 µM), the inhibition at 16 µg/mL (CNE cell line) was 97.3% and the IC50 (CNE cell line) was 8.46 µg/mL (≈ 13.6 µM). The inhibition at 16 µg/mL (U87 MG cell line) was 98%, the IC50 (U87 MG cell line) was 10 µg/mL (≈ 16.1 µM) and the inhibition at 16 µg/mL (Hep G2 cell line) was 100%. It also gave an IC50 (Hep G2 cell line) of 4.89 µg/mL (≈ 7.85 µM).

In the case of `COC(=O)[C@]12CCC(C)(C)CC1C1=CCC3[C@@]4(C)CC(C(=O)NCCC(C)C)C(=O)C(C)(C)C4CC[C@@]3(C)[C@]1(C)CC2` (some centres unmarked) [BS-OA-031], the inhibition at 16 µg/mL (RPMI8226 cell line) is reported as 4.4%, the IC50 (RPMI8226 cell line) is reported as > 16 µg/mL and the inhibition at 16 µg/mL (Kasumi-1 cell line) is reported as 10%. For the same molecule, the IC50 (Kasumi-1 cell line) was > 16 µg/mL, the inhibition at 16 µg/mL (Jurkat cell line) was -28.5% and the IC50 (Jurkat cell line) was > 16 µg/mL. The inhibition at 16 µg/mL (NB4 cell line) was -0.9%, the IC50 (NB4 cell line) was > 16 µg/mL and the IC50 (H9 cell line) was > 16 µg/mL. It also gave an inhibition at 16 µg/mL (H9 cell line) of 31.9%, an IC50 (K562/adr cell line) of 12.1 µg/mL (≈ 20.7 µM) and an inhibition at 16 µg/mL (K562/adr cell line) of 62.2%. For the same molecule, the IC50 (A549 cell line) was > 16 µg/mL, the inhibition at 16 µg/mL (A549 cell line) was -6.3% and the IC50 (PC-3 cell line) was > 16 µg/mL. For the same molecule, the inhibition at 16 µg/mL (PC-3 cell line) was 9.8%, the inhibition at 16 µg/mL (CaES-17 cell line) was -4.7% and the IC50 (CaES-17 cell line) was > 16 µg/mL. The IC50 (PANC-1 cell line) was > 16 µg/mL, the inhibition at 16 µg/mL (PANC-1 cell line) was -1.4% and the IC50 (SK-OV-3 cell line) was > 16 µg/mL. For the same molecule, the inhibition at 16 µg/mL (SK-OV-3 cell line) was 18%, the IC50 (Hep-2 cell line) was > 16 µg/mL and the inhibition at 16 µg/mL (Hep-2 cell line) was 10.5%. The inhibition at 16 µg/mL (RKO cell line) was -12.1%, the IC50 (RKO cell line) was > 16 µg/mL and the IC50 (MG-63 cell line) was > 16 µg/mL. For the same molecule, the inhibition at 16 µg/mL (MG-63 cell line) was -1.3%, the inhibition at 16 µg/mL (Becap37 cell line) was -5.8% and the IC50 (Becap37 cell line) was > 16 µg/mL. For the same molecule, the IC50 (Hela cell line) was > 16 µg/mL, the inhibition at 16 µg/mL (Hela cell line) was 2.5% and the inhibition at 16 µg/mL (MGC 803 cell line) was 0.8%. The IC50 (MGC 803 cell line) was > 16 µg/mL, the inhibition at 16 µg/mL (CNE cell line) was 15.8% and the IC50 (CNE cell line) was > 16 µg/mL. For the same molecule, the inhibition at 16 µg/mL (U87 MG cell line) was 5.3%, the IC50 (U87 MG cell line) was > 16 µg/mL and the inhibition at 16 µg/mL (Hep G2 cell line) was 6.7%. The IC50 (Hep G2 cell line) was > 16 µg/mL.
